From PubChem BioAssay AID328 (DTP/NCI, 2004)
Toxic doses and inconclusive results are not listed.

Tested on: BDF1 mice, P388 leukemia ip, median survival T/C
Experiment: NCI In Vivo Anticancer Drug Screen. Data for tumor model P388 Leukemia (intraperitoneal) in B6D2F1 (BDF1) mice
Conditions: endpoint: median survival time, higher = longer survival
Summary of the method: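 Mice carrying the transplantable tumour receive compound or vehicle. Survival is followed in each arm, and the treated measure is divided by the vehicle measure.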

[1] = dose: 6.25 mg/kg/injection, schedule: Q01DX009 (ip), vehicle: Klucel (hydroxypropylcellulose) (HPC)
[2] = dose: 12.5 mg/kg/injection, schedule: Q01DX009 (ip), vehicle: Klucel (hydroxypropylcellulose) (HPC)
[3] = dose: 100.0 mg/kg/injection, schedule: Q04DX003 (ip), vehicle: Klucel (hydroxypropylcellulose) (HPC)
[4] = dose: 200.0 mg/kg/injection, schedule: Q04DX003 (ip), vehicle: Klucel (hydroxypropylcellulose) (HPC)
[5] = dose: 400.0 mg/kg/injection, schedule: Q04DX003 (ip), vehicle: Klucel (hydroxypropylcellulose) (HPC)
[6] = dose: 50.0 mg/kg/injection, schedule: Q01DX009 (ip), vehicle: saline with Tween-80
[7] = dose: 100.0 mg/kg/injection, schedule: Q01DX009 (ip), vehicle: saline with Tween-80
[8] = dose: 200.0 mg/kg/injection, schedule: Q01DX009 (ip), vehicle: saline with Tween-80
[9] = dose: 100.0 mg/kg/injection, schedule: Q04DX003 (ip), vehicle: saline with Tween-80
[10] = dose: 400.0 mg/kg/injection, schedule: Q01DX009 (ip), vehicle: saline with Tween-80

## Cn1c(=O)c2ncnnc2n(C)c1=O
dose: 1.5 mg/kg/injection, schedule: Q01DX009 (ip), vehicle: Klucel (hydroxypropylcellulose) (HPC)
  T/C: 103 % of control
dose: 3.0 mg/kg/injection, schedule: Q01DX009 (ip), vehicle: Klucel (hydroxypropylcellulose) (HPC)
  T/C: 107 % of control
dose: 6.0 mg/kg/injection, schedule: Q01DX009 (ip), vehicle: Klucel (hydroxypropylcellulose) (HPC)
  T/C: 112 % of control
[1]
  T/C: 250 % of control
dose: 12.0 mg/kg/injection, schedule: Q01DX009 (ip), vehicle: Klucel (hydroxypropylcellulose) (HPC)
  T/C: 106 % of control
[2]
  T/C: 108 % of control

## C/C(=C\n1ccccc1=N)C(=O)c1ccc(F)cc1
[3]
  T/C: 95 % of control
[4]
  T/C: 90 % of control
[5]
  T/C: 104 % of control

## O=C(CN1CCCCC1)Nc1ccc(Br)cc1
[6]
  T/C: 96 % of control
[7]
  T/C: 104 % of control
[8]
  T/C: 112 % of control

## C=CCCC/C(C)=N/NS(=O)(=O)c1ccc(C)cc1
[6]
  T/C: 109 % of control
[7]
  T/C: 109 % of control
[8]
  T/C: 95 % of control

## COc1cccc2c1C(=O)c1c(O)c(COC3CC(N)C(O)C(C)O3)cc(O)c1C2=O (stereo not drawn)
dose: 12.5 mg/kg/injection, schedule: Q01DX009 (ip), vehicle: water
  T/C: 100 % of control
dose: 25.0 mg/kg/injection, schedule: Q01DX009 (ip), vehicle: water
  T/C: 100 % of control

## COc1ccc(CCNC(=O)CCN2C(=O)c3ccccc3C2=O)cc1OC
[9]
  T/C: 104 % of control
dose: 200.0 mg/kg/injection, schedule: Q04DX003 (ip), vehicle: saline with Tween-80
  T/C: 90 % of control
dose: 400.0 mg/kg/injection, schedule: Q04DX003 (ip), vehicle: saline with Tween-80
  T/C: 100 % of control

## COc1cccc2c1C(=O)c1c(O)c3c(c(O)c1C2=O)CC(O)(C(=O)C(C)C)CC3OC1CC(N)C(O)C(C)O1 (stereo not drawn)
dose: 9.4 mg/kg/injection, schedule: Q04DX003 (ip), vehicle: water
  T/C: 107 % of control
dose: 18.8 mg/kg/injection, schedule: Q04DX003 (ip), vehicle: water
  T/C: 107 % of control
dose: 37.5 mg/kg/injection, schedule: Q04DX003 (ip), vehicle: water
  T/C: 116 % of control
dose: 75.0 mg/kg/injection, schedule: Q04DX003 (ip), vehicle: water
  T/C: 90 % of control

## c1ccc(/C(=N\Nc2nc3ccccc3s2)c2ccncc2)cc1
dose: 100.0 mg/kg/injection, schedule: Q01DX009 (ip), vehicle: Klucel (hydroxypropylcellulose) (HPC)
  T/C: 104 % of control
[3]
  T/C: 100 % of control
dose: 200.0 mg/kg/injection, schedule: Q01DX009 (ip), vehicle: Klucel (hydroxypropylcellulose) (HPC)
  T/C: 95 % of control
[4]
  T/C: 105 % of control
dose: 400.0 mg/kg/injection, schedule: Q01DX009 (ip), vehicle: Klucel (hydroxypropylcellulose) (HPC)
  T/C: 100 % of control
[5]
  T/C: 105 % of control

## O.O.O=C(CC(=O)C(F)(F)F)C(F)(F)F.O=C(CC(=O)C(F)(F)F)C(F)(F)F.[Ni]
dose: 200.0 mg/kg/injection, schedule: Q01DX001 (ip), vehicle: Klucel (hydroxypropylcellulose) (HPC)
  T/C: 104 % of control

## CCN1C(=O)Nc2ccc(Cl)cc2C1(O)c1ccccc1 (stereo not drawn)
[6]
  T/C: 97 % of control
[8]
  T/C: 97 % of control

## CN(C)C(=O)Nc1ccc(Cl)cc1
dose: 50.0 mg/kg/injection, schedule: Q01DX001 (ip), vehicle: saline with Tween-80
  T/C: 95 % of control
dose: 100.0 mg/kg/injection, schedule: Q01DX001 (ip), vehicle: saline with Tween-80
  T/C: 100 % of control
dose: 200.0 mg/kg/injection, schedule: Q01DX001 (ip), vehicle: saline with Tween-80
  T/C: 104 % of control

## ClC1OC(Cl)C(Cl)OC1Cl (stereo not drawn)
[1]
  T/C: 105 % of control
[2]
  T/C: 110 % of control

## COC1OC(CNC(=O)N(C)N=O)C(O)C(O)C1O (stereo not drawn)
dose: 100.0 mg/kg/injection, schedule: Q01DX009 (ip), vehicle: saline
  T/C: 164 % of control
dose: 200.0 mg/kg/injection, schedule: Q01DX009 (ip), vehicle: saline
  T/C: 240 % of control
dose: 266.0 mg/kg/injection, schedule: Q04DX003 (ip), vehicle: saline
  T/C: 154 % of control
dose: 400.0 mg/kg/injection, schedule: Q01DX009 (ip), vehicle: saline
  T/C: 309 % of control
dose: 400.0 mg/kg/injection, schedule: Q04DX003 (ip), vehicle: saline
  T/C: 162 % of control
dose: 600.0 mg/kg/injection, schedule: Q04DX003 (ip), vehicle: saline
  T/C: 216 % of control

## ClCCN=Cc1ccc(Cl)cc1
[7]
  T/C: 116 % of control
[8]
  T/C: 111 % of control
[10]
  T/C: 120 % of control

## O=C(CCl)Nc1cc(Cl)ccc1N1CCCC1
dose: 12.5 mg/kg/injection, schedule: Q01DX001 (ip), vehicle: Klucel (hydroxypropylcellulose) (HPC)
  T/C: 118 % of control
dose: 12.5 mg/kg/injection, schedule: Q04DX003 (ip), vehicle: Klucel (hydroxypropylcellulose) (HPC)
  T/C: 90 % of control
dose: 25.0 mg/kg/injection, schedule: Q01DX001 (ip), vehicle: Klucel (hydroxypropylcellulose) (HPC)
  T/C: 104 % of control
dose: 25.0 mg/kg/injection, schedule: Q01DX009 (ip), vehicle: Klucel (hydroxypropylcellulose) (HPC)
  T/C: 95 % of control
dose: 25.0 mg/kg/injection, schedule: Q04DX003 (ip), vehicle: Klucel (hydroxypropylcellulose) (HPC)
  T/C: 104 % of control
dose: 50.0 mg/kg/injection, schedule: Q01DX001 (ip), vehicle: Klucel (hydroxypropylcellulose) (HPC)
  T/C: 104 % of control
dose: 50.0 mg/kg/injection, schedule: Q01DX009 (ip), vehicle: Klucel (hydroxypropylcellulose) (HPC)
  T/C: 90 % of control
dose: 50.0 mg/kg/injection, schedule: Q04DX003 (ip), vehicle: Klucel (hydroxypropylcellulose) (HPC)
  T/C: 104 % of control
dose: 75.0 mg/kg/injection, schedule: Q01DX001 (ip), vehicle: Klucel (hydroxypropylcellulose) (HPC)
  T/C: 95 % of control
dose: 115.0 mg/kg/injection, schedule: Q01DX001 (ip), vehicle: Klucel (hydroxypropylcellulose) (HPC)
  T/C: 95 % of control

## COC1=C[C@H](C)[C@H]2C[C@@H]3OC(=O)CC[C@@H]3C[C@]2(C)C1=O
dose: 2.0 mg/kg/injection, schedule: Q01DX009 (ip), vehicle: saline + alcohol
  T/C: 115 % of control
dose: 4.0 mg/kg/injection, schedule: Q01DX009 (ip), vehicle: saline + alcohol
  T/C: 106 % of control
dose: 8.0 mg/kg/injection, schedule: Q01DX009 (ip), vehicle: saline + alcohol
  T/C: 106 % of control
dose: 16.0 mg/kg/injection, schedule: Q01DX009 (ip), vehicle: saline + alcohol
  T/C: 103 % of control

## CCCCCCCCCCCCN1CCCC(O)C1 (stereo not drawn)
dose: 25.0 mg/kg/injection, schedule: Q01DX009 (ip), vehicle: saline with Tween-80
  T/C: 104 % of control
[6]
  T/C: 100 % of control
dose: 50.0 mg/kg/injection, schedule: Q04DX003 (ip), vehicle: saline with Tween-80
  T/C: 120 % of control
[9]
  T/C: 90 % of control

## O=C(Oc1cc(Cl)ccc1Cl)c1ccccc1
[6]
  T/C: 122 % of control
[7]
  T/C: 89 % of control
[10]
  T/C: 89 % of control
